# Source: patent US20050074867A1, “Preservation of competent cells at ambient temperatures” (priority 2001, published 2005)
# System: Escherichia coli ATCC strain MM294 cells
# Test: Preservation survival of electrocompetent E. coli MM294 cells dried by foam formation (plate count)
# Format: cell-based
# Conditions: cells loaded with 10% MAG, preserved (dried) by foam formation; average of three independent experiments
# Description: (1) Preparation of fresh electrocompetent cells: Escherichia coli ATCC strain MM294 cells were grown under standard conditions in L-broth (growth medium for E. coli), at 37° C., with moderate aeration (shaking at 250 rpm). An isolated colony from a fresh streak was inoculated into 5 ml of L-broth and incubated overnight (preculture). The following morning, the preculture was subcultured (1% inoculum) in 100 ml of L-broth+glucose (0.05%-0.5%). The cells were incubated until OD550=0.5 (subculture). At this point, the cells were transferred into 250 ml of L-broth+glucose (0.05%-0.5%) and incubation continued until OD550=0.8. Two flasks with 250 ml of cells were prepared.
# When the culture OD550 reached 0.8 (cell density approx. 5×10^8 cfu/ml), the cells were harvested by centrifugation at 2,500 rpm (at room temperature) for 10 minutes. […] Bacterial counts were determined by diluting cells in PBS buffer and spread plating appropriate dilutions in duplicate on L-agar. The plates were incubated at 37° C. overnight and colonies were counted the following day. […]
# (5) Assaying the preserved E. coli cells: Dried samples were rehydrated at room temperature. […] Plates were incubated at 37° C. overnight and colonies were counted the following day. […]
structure (smiles),measurement,value
"COC1OC(CO)C(O)C(O)C1O (centres unmarked) [MAG, a-methyl-glucoside]",Preservation Yield Cfu/ml,1.1 × 10^10 Cfu/ml
same,Preservation yield %,53.5%
